Consider seven molecules from patent US6846953B1, “Aromatic amides” (Warner Lambert Company, priority 1999, dated 2005).

A word on the inhibition in vivo: it is the relative decrease from the control value, in per cent.

The first assay deals with Carrageenin induced hyperalgesia in the rat. Put plainly: Carrageenin induced hyperalgesia, rat paw pressure test. In kind it is in vivo. The settings on record: po, 30 mg/kg p.o., 1 h post dose, MPE = maximum possible effect, baseline value prior to carrageenin. As to the method:
(§1) In another test, compounds were evaluated for their ability to reduce the hyperalgesia effects of carrageenin in the following assay: nociceptive pressure thresholds were measured in the rat paw pressure test using an analgesimeter (Randall L. O. and Selitto J. J., A method for measurement of analgesic activity on inflamed tissue. Arch. Int. Pharmacodyn 4: 409-419, 1957). Male Sprague-Dawley rats (70-90 g) were trained on this apparatus before the test day. Pressure was gradually applied to the hind paw of each rat Nociceptive thresholds were determined as the pressure (g) required to elicit paw withdrawal. A cutoff point of 250 g was used to prevent any tissue damage to the paw. On the test day, 2 to 3 baseline measurements were taken before animals were administered 100 μl of 2% aqueous carrageenin by intraplantar injection into the right hind paw. […]
For orientation: In the carrageenan paw model, swelling and tenderness develop within hours.
As to `CCC(=O)N(CCN(CC)CC)c1ccc(Cl)c2ccccc12` [Example 1, N-Propionyl, N-(2-Diethylaminoethyl)-1-amino-4-chloronaphthalene], the inhibition in vivo at 30 mg/kg is 51.5%.

Consider `CCC(=O)N(CCN(CC)CC)c1cccc2c1-c1ccccc1C2=O` [Example 2, N-Propionyl, N-(2-Diethylaminoethyl)-4-amino-9-fluorenone], for which the inhibition in vivo at 30 mg/kg worked out at 1.1%.

`CCC(=O)N(CCN(CC)CC)c1ccc(Br)c2ccccc12` [Example 3, N-Propionyl, N-(2-Diethylaminoethyl)-1-amino-4-bromonaphthalene]: the inhibition in vivo at 30 mg/kg is -2.6%.

Take `CCC(=O)N(CCN1CCOCC1)c1ccc(Cl)c2ccccc12` [Example 4]: the inhibition in vivo at 30 mg/kg is 44.8%.

Take `CCC(=O)N(c1ccc(Cl)c2ccccc12)C(C)CN(CC)CC` (centres unmarked) [Example 5, N-Propionyl, N-(2-(3-diethylamino-propyl))-1-amino-4-chloronaphthalene]: the inhibition in vivo at 30 mg/kg worked out at 23.3%.

With `CCC(=O)N(CCNCc1ccccc1)c1cccc2ccccc12` [Example 12, N-Propionyl, N-(2-(N-benzyl)-aminoethyl)-1-aminonaphthalene], the inhibition in vivo at 30 mg/kg came to 29.7%.

In the case of `C=CC(=O)N(CCN(CC)CC)c1ccc(Cl)c2ccccc12` [Example 14, N-Acryloyl, N-(2-Diethylaminoethyl)-1-amino-4-chloronaphthalene], the inhibition in vivo at 30 mg/kg came to 15.1%.

Another assay concerns Carrageenin induced thermal hyperalgesia in the rat. The description is as above. In kind it is in vivo. The settings on record: po, 30 mg/kg p.o., 2 h post dose, MPE = maximum possible effect, baseline value prior to carrageenin. On the procedure: as §1
Regarding `CCC(=O)N(CCN(CC)CC)c1ccc(Cl)c2ccccc12` [Example 1, N-Propionyl, N-(2-Diethylaminoethyl)-1-amino-4-chloronaphthalene], the inhibition in vivo at 30 mg/kg was determined as 22.2%.

In the case of `CCC(=O)N(CCN(CC)CC)c1cccc2c1-c1ccccc1C2=O` [Example 2, N-Propionyl, N-(2-Diethylaminoethyl)-4-amino-9-fluorenone], the inhibition in vivo at 30 mg/kg is 6.4%.

With `CCC(=O)N(CCN(CC)CC)c1ccc(Br)c2ccccc12` [Example 3, N-Propionyl, N-(2-Diethylaminoethyl)-1-amino-4-bromonaphthalene], the inhibition in vivo at 30 mg/kg was 7.7%.

In the case of `CCC(=O)N(CCN1CCOCC1)c1ccc(Cl)c2ccccc12` [Example 4], the inhibition in vivo at 30 mg/kg worked out at 30.7%.

Regarding `CCC(=O)N(c1ccc(Cl)c2ccccc12)C(C)CN(CC)CC` (centres unmarked) [Example 5, N-Propionyl, N-(2-(3-diethylamino-propyl))-1-amino-4-chloronaphthalene], the inhibition in vivo at 30 mg/kg stood at 27.5%.

In the case of `CCC(=O)N(CCNCc1ccccc1)c1cccc2ccccc12` [Example 12, N-Propionyl, N-(2-(N-benzyl)-aminoethyl)-1-aminonaphthalene], the inhibition in vivo at 30 mg/kg is 3.13%.

As for `C=CC(=O)N(CCN(CC)CC)c1ccc(Cl)c2ccccc12` [Example 14, N-Acryloyl, N-(2-Diethylaminoethyl)-1-amino-4-chloronaphthalene], the inhibition in vivo at 30 mg/kg came to 0.9%.
